Assays:
[1] = test system: TNFa-induced JNK activity; experiment: TNFa-induced JNK activity in HUVEC (GST-c-Jun phosphorylation); format: cell-based, human; conditions: 100 nM oligonucleotide, compared to a control oligonucleotide
[2] = test system: MDA-MB-231 tumors; experiment: MDA-MB-231 human breast adenocarcinoma tumors in nude mice; format: in vivo; conditions: 25 mg/kg intravenous once daily
From the text: Approximately 5×10^6 breast adenocarcinoma cells (cell line MDA-MB-231; American Type Culture Collection, Richmond, Va., No. ATCC HTB-26) were implanted subcutaneously in the right inner thigh of nude mice (n=6 for each of three sets of mice). Oligonucleotides ISIS 15346 (JNK1, SEQ ID NO: 16) and 15353 (JNK2, SEQ ID NO: 31) were suspended in saline and administered once daily to two sets of mice on the first day the tumor volume was about […]. A saline-only (0.9% NaCl) solution was given to a third set of animals as a control. Oligonucleotides were given by intravenous injection at a dosage of 25 mg/kg. Tumor size was measured and tumor volume was calculated on days 12, 19, 26 and 33 following tumor cell inoculation.

[3] = test system: HUVEC; experiment: Apoptosis in HUVEC (percent hypodiploid cells, flow cytometry); format: cell-based, human; conditions: HUVEC

## G^ST^SC^SC^SG^SG^SG^SC^SC^SA^SG^SG^SC^SC^SA^SA^SA^SG^ST^SC (antisense GTCCGGGCCAGGCCAAAGTC; DNA, all phosphorothioate, methylation of C not given here) [ISIS 15353, JNK2 gapmer: P═S, 2′-MOE wings; P═S, 2-deoxy core]
[1]
  inhibition of TNFa-induced JNK activity: ~55%
[2]; Day 12 after tumor cell inoculation
  Mean Tumor Volume: 0.122 cm^3
[2]; Day 19
  Mean Tumor Volume: 0.230 cm^3
[2]; Day 26
  Mean Tumor Volume: 0.358 cm^3
[2]; Day 33
  Mean Tumor Volume: 0.762 cm^3
[3]; Oligo + Cyclohexamide
  percent hypodiploid cells (a measure of apoptosis): 27%
[3]; Oligo + TNFa (10 ng/ml)
  percent hypodiploid cells (a measure of apoptosis): 32%
[3]; Oligo + z-VAD.fmk
  percent hypodiploid cells (a measure of apoptosis): 17%
[3]; Oligo alone
  percent hypodiploid cells (a measure of apoptosis): 23%
